# Test results published in patent US20240148821A1, “PHARMACEUTICAL USE OF CYCLIC PEPTIDE COMPOUND” (CHUGAI SEIYAKU KABUSHIKI KAISHA, priority 2021, published 2024).
# Numbered stars: 1 amine (or outer) side, 2 acyl side, 3 side chain; on linkers, the order of the positions; unused ones are H or OH. Bridge positions count the residues as written; N and C are the ends. Square brackets hold non-standard residues; d marks the D form. Peptide text beside a SMILES is read from it. * marks the point of attachment. NMeAbu(3,3-F2-piperidino) = CN[C@@H](CCN1CCCC(F)(F)C1)C(=O)O; hPhe(3-Cl-4-CF3) = N[C@@H](CCc1ccc(C(F)(F)F)c(Cl)c1)C(=O)O; hPhe(3-F,4-CF3) = N[C@@H](CCc1ccc(C(F)(F)F)c(F)c1)C(=O)O; Phe(3-CF3) = N[C@@H](Cc1cccc(C(F)(F)F)c1)C(=O)O; Phe(4-CF3) = N[C@@H](Cc1ccc(C(F)(F)F)cc1)C(=O)O; NMePhe(4-Me) = CN[C@@H](Cc1ccc(C)cc1)C(=O)O; NMePhe(3-F) = CN[C@@H](Cc1cccc(F)c1)C(=O)O; NMeGly(cPent) = CN[C@H](C(=O)O)C1CCCC1; Phe(3-I) = N[C@@H](Cc1cccc(I)c1)C(=O)O; dβ3hPip = O=C(C[C@H]1CCCCN1[*:1])[*:2]; NMeCha = CN[C@@H](CC1CCCCC1)C(=O)O; NMeChg = CN[C@H](C(=O)O)C1CCCCC1; NMeI = CC[C@H](C)[C@H](NC)C(=O)O; NMeD = CN[C@@H](CC(=O)O)C(=O)O; NMeL = CN[C@@H](CC(C)C)C(=O)O; NMeV = CN[C@H](C(=O)O)C(C)C; d(β3hA) = C[C@@H](N)CC(=O)O; NMeA = CN[C@@H](C)C(=O)O; NMeAib = CNC(C)(C)C(=O)O; Piperidide = C1CCN(*)CC1; dNMeA = CN[C@H](C)C(=O)O; Ac5c = NC1(C(=O)O)CCCC1; Aze = O=C(O)[C@@H]1CCN1; βAla = NCCC(=O)O; Sar = CNCC(=O)O
# Test system: Human pancreatic cancer cell line AsPC-1 (G12D mutation Kras)
# Experiment: AsPC-1 cell growth inhibition (AsPC-1 CGI)
# Type: cell-based
# Details: read-out: AsPC-1 cell growth inhibition, 50% growth inhibitory concentration (IC50 value); 96 hours, CellTiter-Glo, values classified in ranges
# Protocol: Test compounds were serially dilated with dimethyl sulfoxide, and 200 nL was then dispensed to a U-bottom 96-well plate using Labcyte Echo. […] The cell suspension was dispensed to a. plate containing a test compound at 100 μL per well and incubated at 37° C. in a 5% carbon dioxide gas incubator. 96 hours later, 80 μL of CellTiter-Glo (Promega) was added to each well and fluorescence was measured.
row,SMILES,IC50
1,CC[C@H](C)[C@@H]1NC(=O)[C@H](C)N(C)C(=O)C[C@@H](C)NC(=O)[C@H](C2CCCCC2)N(C)C(=O)C2(CCCC2)NC(=O)[C@@H]2CCCN2C(=O)[C@H](CCc2ccc(C(F)(F)F)c(Cl)c2)NC(=O)CN(C)C(=O)[C@H](CC2CCCCC2)N(C)C(=O)CN(C)C(=O)CN(C)C1=O [Compound 1688] (cyclo([Ac5c][NMeChg][d(β3hA)][NMeA]I[Sar][Sar][NMeCha][Sar][hPhe(3-Cl-4-CF3)]P)),> 500 nM
2,"CC[C@H](C)[C@@H]1NC(=O)[C@H](CC(C)C)N(C)C(=O)C[C@@H](C(=O)N(C)C)N(C)C(=O)[C@H]([C@@H](C)CC)N(C)C(=O)[C@H](C(C)C)NC(=O)[C@H](CCN2CCCC(F)(F)C2)N(C)C(=O)[C@H](CCc2ccc(C(F)(F)F)c(Cl)c2)NC(=O)CN(C)C(=O)[C@H](Cc2ccc(C)cc2)N(C)C(=O)[C@@H]2CCN2C(=O)[C@H](C)N(C)C1=O [Compound 379] ([NMeL]I[NMeA][Aze][NMePhe(4-Me)][Sar][hPhe(3-Cl-4-CF3)][NMeAbu(3,3-F2-piperidino)]V[NMeI][NMeD]-NMe2; lactam N-11)",> 500 nM
3,CC[C@H](C)[C@@H]1NC(=O)[C@H](C)N(C)C(=O)C[C@@H](C)NC(=O)[C@H](C(C)C)N(C)C(=O)C2(CCCC2)NC(=O)[C@@H]2CCCN2C(=O)[C@H](CCc2ccc(C(F)(F)F)c(Cl)c2)NC(=O)[C@@H](C)N(C)C(=O)[C@H](CC2CCCCC2)N(C)C(=O)[C@@H]2CCCN2C(=O)CN(C)C1=O [Compound 516] (cyclo([Ac5c][NMeV][d(β3hA)][NMeA]I[Sar]P[NMeCha][dNMeA][hPhe(3-Cl-4-CF3)]P)),> 500 nM
4,CC[C@H](C)[C@@H]1NC(=O)[C@H](CC(C)C)N(C)C(=O)C[C@@H](C(=O)N(C)C)N(C)C(=O)[C@H](C2CCCC2)N(C)C(=O)[C@H](C)NC(=O)[C@H](C)N(C)C(=O)[C@H](CCc2ccc(C(F)(F)F)c(Cl)c2)NC(=O)CN(C)C(=O)[C@H](CC2CCCCC2)N(C)C(=O)[C@@H]2CCN2C(=O)[C@H](C)N(C)C1=O [Compound 993] ([NMeL]I[NMeA][Aze][NMeCha][Sar][hPhe(3-Cl-4-CF3)][NMeA]A[NMeGly(cPent)][NMeD]-NMe2; lactam N-11),> 500 nM
5,CC[C@H](C)[C@@H]1NC(=O)[C@H](C)N(C)C(=O)C[C@@H](C)NC(=O)[C@H](C2CCCC2)N(C)C(=O)C2(CCCC2)NC(=O)[C@@H]2CCCN2C(=O)[C@H](CCc2ccc(C(F)(F)F)c(Cl)c2)NC(=O)[C@@H](C)N(C)C(=O)[C@H](C(C)C)N(C)C(=O)CN(C)C(=O)CN(C)C1=O [Compound 109] (cyclo([Ac5c][NMeGly(cPent)][d(β3hA)][NMeA]I[Sar][Sar][NMeV][dNMeA][hPhe(3-Cl-4-CF3)]P)),> 500 nM
6,CC[C@H](C)[C@@H]1NC(=O)[C@H](CC(C)C)N(C)C(=O)C[C@@H](C(=O)N2CCCCC2)N(C)C(=O)[C@H](CC(C)C)NC(=O)C(C)(C)N(C)C(=O)[C@H](Cc2ccc(C(F)(F)F)cc2)NC(=O)[C@H](Cc2cccc(I)c2)NC(=O)CN(C)C(=O)[C@H](CC2CCCCC2)N(C)C(=O)CN(C)C(=O)CN(C)C1=O [Compound 336] ([NMeL]I[Sar][Sar][NMeCha][Sar][Phe(3-I)][Phe(4-CF3)][NMeAib]L[NMeD]-Piperidide; lactam N-11),> 500 nM
7,CC[C@H](C)[C@@H]1NC(=O)[C@H](CC(C)C)N(C)C(=O)C[C@@H](C(=O)N(C)C)N(C)C(=O)[C@H]([C@@H](C)CC)N(C)C(=O)[C@H](C)NC(=O)[C@H](C)N(C)C(=O)[C@H](CCc2ccc(C(F)(F)F)c(Cl)c2)NC(=O)CN(C)C(=O)[C@H](Cc2ccc(C)cc2)N(C)C(=O)[C@@H]2CCN2C(=O)[C@H](C)N(C)C1=O [Compound 715] ([NMeL]I[NMeA][Aze][NMePhe(4-Me)][Sar][hPhe(3-Cl-4-CF3)][NMeA]A[NMeI][NMeD]-NMe2; lactam N-11),> 500 nM
8,CC[C@H](C)[C@@H]1NC(=O)CCNC(=O)[C@H](Cc2cccc(F)c2)N(C)C(=O)[C@H](C2CCCCC2)N(C)C(=O)C2(CCCC2)NC(=O)[C@@H]2CCCN2C(=O)[C@H](CCc2ccc(C(F)(F)F)c(Cl)c2)NC(=O)CN(C)C(=O)[C@H](CC2CCCCC2)N(C)C(=O)CN(C)C(=O)CN(C)C1=O [Compound 237] (cyclo([Ac5c][NMeChg][NMePhe(3-F)][βAla]I[Sar][Sar][NMeCha][Sar][hPhe(3-Cl-4-CF3)]P)),> 500 nM
9,"CC[C@H](C)[C@@H]1NC(=O)[C@H](CC(C)C)N(C)C(=O)C[C@H]2CCCCN2C(=O)[C@H](C(C)C)N(C)C(=O)C2(CCCC2)NC(=O)[C@@H]2CCCN2C(=O)[C@H](CCc2ccc(C(F)(F)F)c(F)c2)NC(=O)CN(C)C(=O)[C@H](CC2CCCCC2)N(C)C(=O)CN(C)C(=O)CN(C)C1=O [Compound 142] (cyclo([Ac5c][NMeV][dβ3hPip][NMeL]I[Sar][Sar][NMeCha][Sar][hPhe(3-F,4-CF3)]P))",> 500 nM
10,CC[C@H](C)[C@@H]1NC(=O)[C@H](CC(C)C)N(C)C(=O)C[C@@H](C(=O)N2CCCCC2)N(C)C(=O)[C@H](CC(C)C)NC(=O)C(C)(C)N(C)C(=O)[C@H](Cc2cccc(C(F)(F)F)c2)NC(=O)[C@H](Cc2cccc(I)c2)NC(=O)CN(C)C(=O)[C@H](Cc2ccc(C)cc2)N(C)C(=O)CN(C)C(=O)CN(C)C1=O [Compound 376] ([NMeL]I[Sar][Sar][NMePhe(4-Me)][Sar][Phe(3-I)][Phe(3-CF3)][NMeAib]L[NMeD]-Piperidide; lactam N-11),> 500 nM
